This is an account of results in patent US8742100B2, “Small molecule inhibitors of isoprenylcysteine carboxyl methyltransferase with potential anticancer activity” (National University of Singapore, priority 2009, dated 2014).

Like-named read-outs stand apart in the source and are kept apart here.

Data set [1] can be described thus: Binding to fetal bovine serum (plasma protein binding), centrifugal filter device, HPLC. Conditions: bovine, 5% w/v fetal bovine serum in phosphate buffered saline; for fraction unbound at 30 min, 1 µM / fraction unbound at 30 min, 4 µM / fraction unbound at 30 min, 10 µM / fraction unbound at 30 min, 25 µM: 5% fetal bovine serum in PBS; for fraction unbound at 30 min: all conc (1, 4, 10, 25 uM), read-out: % Bound Average, all conc (converted). Type of data set: in vitro ADME. The procedure:
(§1) Semi-automatic high-throughput determination of plasma protein binding using a 96-well plate filtrate assembly and fast liquid chromatography—tandem mass spectrometry. […] Stock solutions were prepared in DMSO at 100× higher concentrations. A 5% w/v solution of fetal bovine serum in phosphate buffered saline was prepared. An aliquot (10 μL of the stock solution was added to 990 μL of the PBS solution containing 5% fetal bovine serum in a glass tube which was then incubated in a shaking water bath at 37° C. for 30 min. 500 μL of the solution was then transferred to a centrifugal filter device (Amicon Ultra 0.5 ml # UFC503096) and centrifuged at 14 000g, 15 min. After this time, the filter units were removed and placed (upside down) in a collecting tube containing 477 μL, of PBS. The latter was centrifuged at 2000g, 2 min to obtain the retentate. […] J.

Another data set relates to fetal bovine serum. The data set is described as above. The format is in vitro ADME. Particulars: fetal bovine serum. The procedure: as §1
Where [2] appears, read: read-out: % Bound Average (converted).
[3] abbreviates: read-out: % Bound Run 1 (converted).
Setting [4] is: read-out: % Bound Run 2 (converted).
Setting [5] is: read-out: % Bound Run 3 (converted).

For `CCCCCCCCn1cc(CN(CC)CC)c2cc(-c3cccc(C)c3)ccc21` [Compound J17G, N-ethyl-N-((1-octyl-5-m-tolyl-1H-indol-3-yl)methyl)ethanamine], the fraction unbound at 30 min, 1 µM is 0.182 in data set [1] (setting [2]), 0.17 in data set [1] (setting [3]), 0.224 in data set [1] (setting [4]) and 0.151 in data set [1] (setting [5]). Further, the fraction unbound at 30 min, 4 µM is 0.272 in data set [1] (setting [2]), 0.274 in data set [1] (setting [3]), 0.301 in data set [1] (setting [4]) and 0.243 in data set [1] (setting [5]). In addition, the fraction unbound at 30 min, 10 µM in data set [1] (setting [2]) is 0.299; in data set [1] (setting [3]), 0.317; in data set [1] (setting [4]), 0.353; in data set [1] (setting [5]), 0.226. The fraction unbound at 30 min, 25 µM in data set [1] (setting [2]) was 0.304; in data set [1] (setting [3]) it was 0.286; in data set [1] (setting [4]) it was 0.352; in data set [1] (setting [5]), 0.275. Also, the fraction unbound at 30 min in data set [1] is 0.264. Besides, in the data set on fetal bovine serum, the “binding capacity compared with cysmethynil” value was “lower binding capacities than cysmethynil”.

For the compound `CCN(CC)Cc1cn(CC=C(C)C)c2ccc(-c3cccc(C)c3)cc12` [Compound J38G, N-ethyl-N-((1-(3-methylbut-2-enyl)-5-m-tolyl-1H-indol-3-yl)methyl)ethanamine], in data set [1] (setting [2]), the fraction unbound at 30 min, 1 µM is 0.776; the fraction unbound at 30 min, 4 µM is 0.638; the fraction unbound at 30 min, 10 µM was 0.765; the fraction unbound at 30 min, 25 µM was 0.737. Further, in data set [1] (setting [3]), the fraction unbound at 30 min, 1 µM is 0.747; the fraction unbound at 30 min, 4 µM was 0.616; the fraction unbound at 30 min, 10 µM was 0.697; the fraction unbound at 30 min, 25 µM was 0.725. Also, in data set [1] (setting [4]), the fraction unbound at 30 min, 1 µM is 0.845; the fraction unbound at 30 min, 4 µM is 0.676; the fraction unbound at 30 min, 10 µM is 0.783; the fraction unbound at 30 min, 25 µM was 0.792. Further, in data set [1] (setting [5]), the fraction unbound at 30 min, 1 µM is 0.737; the fraction unbound at 30 min, 4 µM is 0.621; the fraction unbound at 30 min, 10 µM is 0.815; the fraction unbound at 30 min, 25 µM was 0.693. In addition, in data set [1], the fraction unbound at 30 min was 0.729. Also, the “binding capacity compared with cysmethynil” value in the data set with fetal bovine serum was “lower binding capacities than cysmethynil”.
